Positions of bridges follow the written chain, without caps; N, C: chain ends. Non-standard residues stand in square brackets, D forms with d. Residues, ends and D or L forms follow the SMILES beside them. ξ: configuration not given here. Phe(F5) = N[C@@H](Cc1c(F)c(F)c(F)c(F)c1F)C(=O)O; Bta = N[C@@H](Cc1csc2ccccc12)C(=O)O; cisHyp = O=C(O)[C@@H]1C[C@H](O)CN1; ξPro(4,4-F2) = O=C(O)C1CC(F)(F)CN1; ξW = NC(Cc1c[nH]c2ccccc12)C(=O)O; NMeNle = CCCC[C@H](NC)C(=O)O; NMeA = CN[C@@H](C)C(=O)O; Orn = NCCC[C@H](N)C(=O)O; Dap = NC[C@H](N)C(=O)O; Sar = CNCC(=O)O
Tests used:
[1] = molecular target: T1, LK35.2-hPD-L1 cells / PE-labeled PD-1-Ig (Homo sapiens, UniProt Q9NZQ7); assay: LK35.2-hPD-L1 cell binding high-content screening assay; assay type: cell-based; conditions: cluster symbol; cell line of CBA not given (LK35.2-hPD-L1 or 293T-hPD-L1); read-out: CBA IC50 cluster
T1 construct: expressed in transfected cells; host or cells: LK35.2 mouse B cell line
Outline: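 Mouse LK35.2 B cells stably over-expressing human PD-L1, cultured overnight, treated with compound plus PE-labeled human PD-1-Ig (1 nM final) in RPMI/10% FCS for 1 h at 37 °C. After washing, bound fluorescence quantified by high-content imaging.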

[2] = molecular target: T2, Human PD-L1/PD-1 (Homo sapiens, UniProt Q9NZQ7); assay: HTRF PD-1-Ig/PD-L1-His binding assay (human PD-L1); conditions: cluster symbol; read-out: HTRF IC50 cluster
T2 construct: made in house; host or cells: HEK293T
Outline: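 HTRF read-out: Eu cryptate anti-Ig mAb 1 nM final, APC anti-His mAb 20 nM final, added over the binding reaction. Proteins were PD-1-Ig and PD-L1-His ectodomain fusions. Buffer was dPBS, 0.1% BSA, 0.05% Tween-20.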

T2 sequence (Q9NZQ7 with tags, fused parts or gaps): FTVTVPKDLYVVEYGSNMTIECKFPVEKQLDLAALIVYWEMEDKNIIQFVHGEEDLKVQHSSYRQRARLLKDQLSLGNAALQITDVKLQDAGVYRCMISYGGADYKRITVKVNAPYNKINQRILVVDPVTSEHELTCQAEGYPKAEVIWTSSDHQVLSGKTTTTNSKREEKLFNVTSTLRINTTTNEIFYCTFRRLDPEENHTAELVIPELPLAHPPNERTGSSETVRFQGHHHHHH
T1 sequence (Q9NZQ7 19-290): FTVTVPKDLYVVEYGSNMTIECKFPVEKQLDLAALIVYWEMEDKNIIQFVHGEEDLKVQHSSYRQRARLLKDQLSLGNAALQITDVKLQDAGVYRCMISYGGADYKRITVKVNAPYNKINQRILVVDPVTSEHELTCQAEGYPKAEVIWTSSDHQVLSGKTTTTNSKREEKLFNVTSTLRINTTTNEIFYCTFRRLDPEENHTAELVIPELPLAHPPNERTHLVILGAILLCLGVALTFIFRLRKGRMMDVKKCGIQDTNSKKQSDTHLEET

Row | Structure (SMILES) | IC50 [1] | IC50 [2]
1 | CCCC[C@H]1C(=O)N(C)[C@@H](CCCC)C(=O)N[C@@H](CCCNC(=N)N)C(=O)N[C@H](C(=O)NCC(N)=O)CSCC(=O)N[C@@H](Cc2ccc(O)cc2)C(=O)N(C)[C@@H](C)C(=O)N[C@@H](CC(N)=O)C(=O)N2CC(F)(F)CC2C(=O)N[C@@H](Cc2cnc[nH]2)C(=O)N[C@@H](CC(C)C)C(=O)N2CCC[C@H]2C(=O)NC(Cc2c[nH]c3ccccc23)C(=O)N[C@@H](CO)C(=O)N[C@@H](Cc2csc3ccccc23)C(=O)N1C (stereo partly drawn) [Example 1048] ({CH2CO}-Y[NMeA]N[ξPro(4,4-F2)]HLP[ξW]S[Bta][NMeNle][NMeNle]RCG-NH2; thioether N-14) | 0.158 to 4.71 nM | 6.76 to 30.3 nM
2 | CCCC[C@H]1C(=O)N(C)[C@@H](CCCC)C(=O)N[C@@H](C)C(=O)N[C@H](C(=O)NCC(N)=O)CSCC(=O)N[C@@H](Cc2ccc(O)cc2)C(=O)N(C)[C@@H](C)C(=O)N[C@@H](CC(N)=O)C(=O)N2CCC[C@H]2C(=O)N[C@@H](Cc2cnc[nH]2)C(=O)N[C@@H](CC(C)C)C(=O)N2CCC[C@H]2C(=O)N[C@@H](Cc2c[nH]c3ccccc23)C(=O)N[C@@H](CO)C(=O)N[C@@H](Cc2csc3ccccc23)C(=O)N1C [Example 1049] ({CH2CO}-Y[NMeA]NPHLPWS[Bta][NMeNle][NMeNle]ACG-NH2; thioether N-14) | 0.158 to 4.71 nM | 6.76 to 30.3 nM
3 | CCCC[C@H]1C(=O)N(C)[C@@H](CCCC)C(=O)N[C@@H](C)C(=O)N[C@H](C(=O)NCC(N)=O)CSCC(=O)N[C@@H](Cc2ccc(O)cc2)C(=O)N(C)[C@@H](C)C(=O)N[C@@H](CC(N)=O)C(=O)N2CCC[C@H]2C(=O)N[C@@H](Cc2cnc[nH]2)C(=O)N[C@@H](CC(C)C)C(=O)N2CCC[C@H]2C(=O)N[C@@H](Cc2c[nH]c3ccccc23)C(=O)N[C@@H](Cc2ccc(O)cc2)C(=O)N[C@@H](Cc2csc3ccccc23)C(=O)N1C [Example 1050] ({CH2CO}-Y[NMeA]NPHLPWY[Bta][NMeNle][NMeNle]ACG-NH2; thioether N-14) | 4.78 to 72.9 nM | > 30.5 nM
4 | CCCC[C@H]1C(=O)N(C)[C@@H](CCCC)C(=O)N[C@@H](CCCN)C(=O)N[C@H](C(=O)NCC(N)=O)CSCC(=O)N[C@@H](Cc2ccc(O)cc2)C(=O)N(C)[C@@H](C)C(=O)N[C@@H](CC(N)=O)C(=O)N2CCC[C@H]2C(=O)N[C@@H](Cc2cnc[nH]2)C(=O)N[C@@H](CC(C)C)C(=O)N2C[C@@H](O)C[C@H]2C(=O)N[C@@H](Cc2c[nH]c3ccccc23)C(=O)N[C@@H](CO)C(=O)N[C@@H](Cc2csc3ccccc23)C(=O)N1C [Example 1051] ({CH2CO}-Y[NMeA]NPHL[cisHyp]WS[Bta][NMeNle][NMeNle][Orn]CG-NH2; thioether N-14) | 0.158 to 4.71 nM | 6.76 to 30.3 nM
5 | CCCC[C@H]1C(=O)N(C)[C@@H](CCCC)C(=O)N[C@@H](CCCNC(=N)N)C(=O)N[C@H](C(=O)NCC(N)=O)CSCC(=O)N[C@@H](Cc2ccc(O)cc2)C(=O)N(C)[C@@H](C)C(=O)N[C@@H](CC(N)=O)C(=O)N[C@@H](Cc2cnc[nH]2)C(=O)N2CCC[C@H]2C(=O)N[C@@H](CC(C)C)C(=O)N2CCC[C@H]2C(=O)N[C@@H](Cc2c[nH]c3ccccc23)C(=O)N[C@@H](CO)C(=O)N[C@@H](Cc2csc3ccccc23)C(=O)N1C [Example 1052] ({CH2CO}-Y[NMeA]NHPLPWS[Bta][NMeNle][NMeNle]RCG-NH2; thioether N-14) | > 74.3 nM | > 30.5 nM
6 | CCCC[C@H]1C(=O)N[C@@H](CCCNC(=N)N)C(=O)N[C@H](C(=O)NCC(N)=O)CSCC(=O)N[C@@H](Cc2ccccc2)C(=O)N(C)[C@@H](C)C(=O)N[C@@H](CC(N)=O)C(=O)N2CCC[C@H]2C(=O)N[C@@H](Cc2cnc[nH]2)C(=O)N[C@@H](CC(C)C)C(=O)N(C)CC(=O)N[C@@H](Cc2c[nH]c3ccccc23)C(=O)N[C@@H](CO)C(=O)N[C@@H](Cc2c[nH]c3ccccc23)C(=O)N[C@@H](Cc2c(F)c(F)c(F)c(F)c2F)C(=O)N1C [Example 1058] ({CH2CO}-F[NMeA]NPHL[Sar]WSW[Phe(F5)][NMeNle]RCG-NH2; thioether N-14) | > 74.3 nM | > 30.5 nM

Next, values leading:

Row | IC50 [1] | IC50 [2] | Structure (SMILES)
7 | > 74.3 nM | > 30.5 nM | C=CCCCCC[C@H]1C(=O)N(C)[C@@H](CCCCCC=C)C(=O)N[C@@H](CCCNC(=N)N)C(=O)N[C@H](C(=O)NCC(N)=O)CSCC(=O)N[C@@H](Cc2ccccc2)C(=O)N(C)[C@@H](C)C(=O)N[C@@H](CC(N)=O)C(=O)N2CCC[C@H]2C(=O)N[C@@H](Cc2cnc[nH]2)C(=O)N[C@@H](CC(C)C)C(=O)N(C)CC(=O)N[C@@H](Cc2c[nH]c3ccccc23)C(=O)N[C@@H](CO)C(=O)N[C@@H](Cc2c[nH]c3ccccc23)C(=O)N1C [Example 1047]
8 | > 74.3 nM | > 30.5 nM | CCCC[C@H]1C(=O)N(C)[C@@H](CCCC)C(=O)N[C@@H](CCCNC(=N)N)C(=O)N[C@H](C(=O)NCC(N)=O)CSCC(=O)N[C@@H](Cc2ccccc2)C(=O)N(C)[C@@H](C)C(=O)N[C@@H](CC(N)=O)C(=O)N2CCC[C@H]2C(=O)N[C@@H](Cc2cnc[nH]2)C(=O)NCC(=O)N(C)CC(=O)N[C@@H](Cc2c[nH]c3ccccc23)C(=O)N[C@@H](CO)C(=O)N[C@@H](Cc2c[nH]c3ccccc23)C(=O)N1C [Example 1053] ({CH2CO}-F[NMeA]NPHG[Sar]WSW[NMeNle][NMeNle]RCG-NH2; thioether N-14)
9 | 4.78 to 72.9 nM | 0.385 to 6.74 nM | CCCC[C@H]1C(=O)N(C)[C@@H](CCCC)C(=O)N[C@@H](CCCNC(=N)N)C(=O)N[C@H](C(=O)NCC(N)=O)CSCC(=O)N[C@@H](Cc2ccccc2)C(=O)N(C)[C@@H](C)C(=O)N[C@@H](CC(N)=O)C(=O)N2CCC[C@H]2C(=O)N[C@@H](Cc2cnc[nH]2)C(=O)N[C@@H](CCC(=O)O)C(=O)N(C)CC(=O)N[C@@H](Cc2c[nH]c3ccccc23)C(=O)N[C@@H](CO)C(=O)N[C@@H](Cc2c[nH]c3ccccc23)C(=O)N1C [Example 1054] ({CH2CO}-F[NMeA]NPHE[Sar]WSW[NMeNle][NMeNle]RCG-NH2; thioether N-14)
10 | 4.78 to 72.9 nM | 6.76 to 30.3 nM | CCCC[C@H]1C(=O)N(C)[C@@H](CCCC)C(=O)N[C@@H](CCCN)C(=O)N[C@H](C(=O)NCC(N)=O)CSCC(=O)N[C@@H](Cc2ccccc2)C(=O)N(C)[C@@H](C)C(=O)N[C@@H](CC(N)=O)C(=O)N2CCC[C@H]2C(=O)N[C@@H](Cc2cnc[nH]2)C(=O)N[C@@H](CC(C)C)C(=O)N(C)CC(=O)N[C@@H](Cc2c[nH]c3ccccc23)C(=O)N[C@@H](CO)C(=O)N[C@@H](Cc2c[nH]c3ccccc23)C(=O)N1C [Example 1055] ({CH2CO}-F[NMeA]NPHL[Sar]WSW[NMeNle][NMeNle][Orn]CG-NH2; thioether N-14)
11 | 4.78 to 72.9 nM | 6.76 to 30.3 nM | CCCC[C@H]1C(=O)N(C)[C@@H](CCCC)C(=O)N[C@@H](CC(=O)O)C(=O)N[C@H](C(=O)NCC(N)=O)CSCC(=O)N[C@@H](Cc2ccccc2)C(=O)N(C)[C@@H](C)C(=O)N[C@@H](CC(=O)O)C(=O)N2CCC[C@H]2C(=O)N[C@@H](Cc2cnc[nH]2)C(=O)N[C@@H](CCCNC(=N)N)C(=O)N(C)CC(=O)N[C@@H](Cc2c[nH]c3ccccc23)C(=O)N[C@@H](CCCNC(=N)N)C(=O)N[C@@H](Cc2c[nH]c3ccccc23)C(=O)N1C [Example 1056] ({CH2CO}-F[NMeA]DPHR[Sar]WRW[NMeNle][NMeNle]DCG-NH2; thioether N-14)
12 | > 74.3 nM | > 30.5 nM | CCCC[C@H]1C(=O)N[C@@H](CCCNC(=N)N)C(=O)N[C@H](C(=O)NCC(N)=O)CSCC(=O)N[C@@H](Cc2ccccc2)C(=O)N(C)[C@@H](C)C(=O)N[C@@H](CC(N)=O)C(=O)N2CCC[C@H]2C(=O)N[C@@H](Cc2cnc[nH]2)C(=O)N[C@@H](CC(C)C)C(=O)N(C)CC(=O)N[C@@H](Cc2c[nH]c3ccccc23)C(=O)N[C@@H](CO)C(=O)N[C@@H](Cc2c[nH]c3ccccc23)C(=O)N[C@@H](C)C(=O)N1C [Example 1057] (HELM PEPTIDE1{[O=C(C[*:3])[*:2]].F.[meA].N.P.H.L.[Sar].W.S.W.A.[CCCC[C@@H](C(=O)[*:2])N(C)[*:1]].R.C.G.[am]}$PEPTIDE1,PEPTIDE1,1:R3-15:R3$$$V2.0)
13 | > 74.3 nM | > 30.5 nM | CCCC[C@H]1C(=O)N(C)[C@@H](CCCC)C(=O)N[C@@H](CCCNC(=N)N)C(=O)N[C@H](C(=O)NCC(N)=O)CSCC(=O)N[C@@H](Cc2ccccc2)C(=O)N(C)[C@@H](C)C(=O)N[C@@H](CC(N)=O)C(=O)N2CCC[C@H]2C(=O)N[C@@H](CCCN)C(=O)N[C@@H](CC(C)C)C(=O)N(C)CC(=O)N[C@@H](Cc2c[nH]c3ccccc23)C(=O)N[C@@H](CO)C(=O)N[C@@H](Cc2c[nH]c3ccccc23)C(=O)N1C [Example 1059] ({CH2CO}-F[NMeA]NP[Orn]L[Sar]WSW[NMeNle][NMeNle]RCG-NH2; thioether N-14)
14 | 4.78 to 72.9 nM | 6.76 to 30.3 nM | CCCC[C@H]1C(=O)N(C)[C@@H](CCCC)C(=O)N[C@@H](CCCNC(=N)N)C(=O)N[C@H](C(=O)NCC(N)=O)CSCC(=O)N[C@@H](Cc2ccccc2)C(=O)N(C)[C@@H](C)C(=O)N[C@@H](CC(N)=O)C(=O)N2CCC[C@H]2C(=O)N[C@@H](CN)C(=O)N[C@@H](CC(C)C)C(=O)N(C)CC(=O)N[C@@H](Cc2c[nH]c3ccccc23)C(=O)N[C@@H](CO)C(=O)N[C@@H](Cc2c[nH]c3ccccc23)C(=O)N1C [Example 1060] ({CH2CO}-F[NMeA]NP[Dap]L[Sar]WSW[NMeNle][NMeNle]RCG-NH2; thioether N-14)
15 | > 74.3 nM | > 30.5 nM | CCCC[C@H]1C(=O)N(C)[C@@H](CCCC)C(=O)N[C@@H](CCCNC(=N)N)C(=O)N[C@H](C(=O)NCC(N)=O)CSCC(=O)N[C@@H](Cc2ccccc2)C(=O)N(C)[C@@H](C)C(=O)N[C@@H](CC(N)=O)C(=O)N2CCC[C@H]2C(=O)N[C@@H](Cc2cnc[nH]2)C(=O)N[C@@H](CC(C)C)C(=O)N(C)CC(=O)N[C@@H](Cc2c[nH]c3ccccc23)C(=O)N[C@H](C)C(=O)N[C@@H](Cc2c[nH]c3ccccc23)C(=O)N1C [Example 1061] ({CH2CO}-F[NMeA]NPHL[Sar]W[dA]W[NMeNle][NMeNle]RCG-NH2; thioether N-14)
